Holding throughout (type): functional
Assay [1] has as its system Staphylococcus aureus. Description: Antimicrobial activity against methicillin-resistant Staphylococcus aureus isolate 8.
For assay [2], the system named is Staphylococcus aureus. Description: Antimicrobial activity against methicillin-susceptible Staphylococcus aureus isolate 2.
Assay [3] concerns Staphylococcus aureus. Description: Antimicrobial activity against vancomycin-resistant Staphylococcus aureus isolate 15.
Assay [4] deals with Staphylococcus aureus. Description: Antimicrobial activity against methicillin-susceptible Staphylococcus aureus isolate 4.
Assay [5] has as its system Staphylococcus aureus. Description: Antimicrobial activity against vancomycin-susceptible Staphylococcus aureus isolate 11.
For assay [6], the system named is Staphylococcus aureus. Description: Antimicrobial activity against methicillin-susceptible Staphylococcus aureus isolate 1.
The subject of assay [7] is Staphylococcus aureus. Description: Antimicrobial activity against vancomycin-resistant Staphylococcus aureus isolate 13.
In assay [8] the test system is Staphylococcus aureus. Description: Antimicrobial activity against vancomycin-resistant Staphylococcus aureus isolate 12.
Assay [9] concerns Staphylococcus aureus. Description: Antimicrobial activity against methicillin-resistant Staphylococcus aureus isolate 5.
Assay [10] relates to Staphylococcus aureus. Description: Antimicrobial activity against vancomycin-intermediate Staphylococcus aureus isolate 9.
Assay [11] relates to Staphylococcus aureus. Description: Antimicrobial activity against methicillin-resistant Staphylococcus aureus isolate 6.
Assay [12] deals with Staphylococcus aureus. Description: Antimicrobial activity against methicillin-resistant Staphylococcus aureus isolate 7.
Assay [13] relates to Staphylococcus aureus. Description: Antimicrobial activity against vancomycin-resistant Staphylococcus aureus isolate 14.
Assay [14] concerns Staphylococcus aureus. Description: Antimicrobial activity against vancomycin-intermediate Staphylococcus aureus isolate 10.
In assay [15] the test system is Staphylococcus aureus. Description: Antimicrobial activity against methicillin-susceptible Staphylococcus aureus isolate 3.

Converted amounts (≈) assume the structure as drawn.

MIC data for four compounds are collected here from ChEMBL document CHEMBL1153466, “Isoplatensimycin: Synthesis and biological evaluation” (2009).

As usually defined, the MIC is the smallest concentration in the dilution series that meets the test's criterion for growth inhibition. For `CC12C[C@@]34C=CC(=O)[C@@](C)(CCC(=O)Nc5c(O)ccc(C(=O)O)c5O)C3[C@H](CC1C4)O2` (mixture of isomers) [PLATENSIMYCIN], the MIC in assay [1] came out at 4 µg/mL; in assay [2], 64 µg/mL; in assay [3], 0.5 µg/mL; in assay [4], 2 µg/mL; in [5] it was 2 µg/mL; in [6], 4 µg/mL. Moreover, the MIC was found to be 1 µg/mL in assay [7]; 1 µg/mL in assay [8]; 4 µg/mL in assay [9]; 4 µg/mL in [10]; 4 µg/mL in assay [11]; 16 µg/mL in [12]. Also, the MIC in assay [13] worked out at 0.5 µg/mL; in assay [14], 4 µg/mL; in [15], 128 µg/mL.

As for `CC12CC3CC4(C=CC(=O)C(C)(CCC(=O)Nc5c(O)ccc(C(=O)O)c5O)C4C3O1)C2` (racemic) [ISOPLATENSIMYCIN], the MIC in [1] was more than 128 µg/mL; in assay [2] it was more than 128 µg/mL; in [3], 4 µg/mL (≈ 9.06 µM); in assay [4], 128 µg/mL (≈ 290 µM); in [5] it was 16 µg/mL (≈ 36.2 µM); in [6], 128 µg/mL (≈ 290 µM). Also, the minimal inhibitory concentration (MIC) in assay [7] is 32 µg/mL (≈ 72.5 µM); in assay [8], 64 µg/mL (≈ 145 µM); in [9], more than 128 µg/mL; in assay [10], more than 128 µg/mL; in assay [11] it was more than 128 µg/mL; in [12], more than 128 µg/mL. The MIC is 2 µg/mL (≈ 4.53 µM) in assay [13], more than 128 µg/mL in assay [14] and more than 128 µg/mL in assay [15].

As to `Cc1onc(-c2ccccc2)c1C(=O)N[C@@H]1C(=O)N2[C@@H]1SC(C)(C)[C@@H]2C(=O)O` [OXACILLIN], the MIC is more than 128 µg/mL in assay [1]; 0.5 µg/mL (≈ 1.25 µM) in [2]; 0.5 µg/mL (≈ 1.25 µM) in assay [4]; 0.125 µg/mL (≈ 0.311 µM) in assay [6]; more than 128 µg/mL in [9]; more than 128 µg/mL in assay [10]. Besides, the minimum inhibitory concentration (MIC) was more than 128 µg/mL in assay [11], 16 µg/mL (≈ 39.9 µM) in assay [12], more than 128 µg/mL in assay [14] and 0.125 µg/mL (≈ 0.311 µM) in assay [15].

Take `CN[C@H](CC(C)C)C(=O)N[C@H]1C(=O)N[C@@H](CC(N)=O)C(=O)N[C@H]2C(=O)N[C@H]3C(=O)N[C@H](C(=O)N[C@H](C(=O)O)c4cc(O)cc(O)c4-c4cc3ccc4O)[C@H](O)c3ccc(c(Cl)c3)Oc3cc2cc(c3O[C@@H]2O[C@H](CO)[C@@H](O)[C@H](O)[C@H]2O[C@H]2C[C@](C)(N)[C@H](O)[C@H](C)O2)Oc2ccc(cc2Cl)[C@H]1O` [VANCOMYCIN]: the MIC in assay [3] is more than 128 µg/mL; in assay [7], 128 µg/mL (≈ 88.3 µM); in assay [8], 32 µg/mL (≈ 22.1 µM); in [13], more than 128 µg/mL.
